Assay results published in patent US12576033B2, “Spray-dried formulation of a pyridazinone TRPC5 inhibitor” (GFB (ABC), LLC, priority 2019, dated 2026).

Experiments:
Assay type in all cases: physicochemical
[1] = Visual solubility in common spray drying solvents
Protocol: Organic solubility of Compound 1 was determined visually in common spray drying solvents (Table 10) and Compound 1 lot AC5313-058P1 was utilized. […] When removed from heat API crashes out after 5 minutes. Solution (% w/w) was then prepared at 2.0% Compound 1 and heated to 40° C. where solids dissolved immediately. The 2.0% solution was then removed from heat where API appeared to crash out after ˜2 hours.

[2] = MDSC thermal analysis (Tg)
Protocol: MDSC was performed using a TA Instruments Discovery DSC2500 differential scanning calorimeter equipped with a TA instruments Refrigerated Cooling System 90. MDSC was used to measure thermodynamic events and characteristics of Compound 1 API and subsequent SDIs. Events observed include the glass transition temperature (Tg), cold crystallization (Tc, defined as a crystallization event at a temperature lower than the melt temperature) and melting temperature (Tm). SDI samples were placed in non-hermetic aluminum pans and heated at a constant rate of 2.0° C./min over a 0-200° C. temperature range. The system was purged by nitrogen flow at 50 mL/min to ensure inert atmosphere through the course of measurement. […] The resulting amorphous API was analyzed by modulated DSC up to 265° C. […]
Thermal properties including melting temperature (Tm), glass transition temperature (Tg) and crystallization temperature (Tc) of Compound 1 crystalline Form H (anhydrous/solvate free) were measured by MDSC. […] The Tg was measured via a melt-quench technique, heating Compound 1 past its melting temperature and rapidly cooled in liquid nitrogen to trap the molten material in an amorphous state. The resulting sample was analyzed by MDSC and a Tg of 130° C. was observed (FIGS. 1A-B/Table 9) with no observed crystallization peaks or clear melting events in the subsequent amorphous ramp up to 275° C. […]

[3] = Two stage gastric transfer non-sink dissolution test (0.1N HCl/FaSSIF)
Protocol: In-vitro drug dissolution performance for each SDI is evaluated by Patheon's two stage ‘gastric transfer’ non-sink dissolution test (Table 8), which simulates pH and bile salt concentrations for both gastric and intestinal exposure in a simple to perform assay. Pre-weighed SDI powder is briefly suspended in media (e.g. by 10 sec vortex mixing with 4.0 mL media) and transferred to a pre-heated (37° C.) volume of 50 mL of 0.1N HCl(aq) (simulated gastric fluid or SGF, pH˜1.0, without pepsin or bile salts), in a USP Type 2 mini-vessel (100 mL total vessel volume) while stirring (paddles) at 100 rpm. After 30 minutes of gastric pH exposure, an equal volume of PBS buffered, 2× concentrated fasted-state simulated intestinal fluid (FaSSIF) is added to the SGF, resulting in a final pH of 6.8 in FaSSIF (100 mM PBS containing 2.24 mg/mL SIF powder (original) (Biorelevant Inc.) in a total volume of 100 mL. Aliquiots (1.0 mL) of dissolution media are taken at selected time-points before and after the simulated gastric transfer, spun-down (13000 rpm) to pellet out undissolved solids, and the supernatant sampled and further diluted in an appropriate diluent to determine API total drug concentration (e.g. free and colloidal/polymer-bound drug in solution) utilizing a suitable HPLC method. Additional centrifugation and filtration was performed using 10K molecular weight cutoff filters to remove polymer bound aggregates and colloids. The resulting filtrate of free drug consists of drug in solution and micelles. The volume of FaSSIF added is adjusted to account for the sampling volume removed prior to gastric transfer (typically 4×1.0 mL). Initial Compound 1 API measurements and SDI dissolution samples were determined utilizing HPLC.
The dissolution performance of the SDI material and crystalline Compound 1 was tested in Patheon's non-sink dissolution test (FIG. 6 and Table 15). The dissolution test is used to measure the supersaturation of drug above the bulk crystalline Compound 1 solubility in biorelevant intestinal media (FaSSIF) after 30 minutes exposure to a low-pH environment. […]

[4] = 60:40 DCM:Methanol, clear solution when heated to 40° C.
[5] = 80:20 DCM:Methanol, clear solution when heated to 40° C.
[6] = 90:10 DCM:Methanol, clear solution when heated to 40° C.

- Compound 1 Visual Solubility ([1]; 50:50 DCM:Methanol): >1.0 wt .%
- Observation (visual solubility) ([1]; 50:50 DCM:Methanol): Insoluble
- Compound 1 Visual Solubility [1, 4]: 2.0-3.0 wt .%
- Observation (visual solubility) [1, 4]: Soluble^1
- Compound 1 Visual Solubility [1, 5]: 1.0-1.5 wt .%
- Observation (visual solubility) [1, 5]: Soluble^1
- Compound 1 Visual Solubility [1, 6]: 1.0-1.5 wt .%
- Observation (visual solubility) [1, 6]: Soluble^1
- Compound 1 Visual Solubility ([1]; 95:5 Acetone:Water): >1.0 wt .%
- Observation (visual solubility) ([1]; 95:5 Acetone:Water): Insoluble
- Compound 1 Visual Solubility ([1]; Acetone): >1.0 wt .%
- Observation (visual solubility) ([1]; Acetone): Insoluble
- Compound 1 Visual Solubility ([1]; Methanol): >1.0 wt .%
- Observation (visual solubility) ([1]; Methanol): Insoluble
- Compound 1 Visual Solubility ([1]; Methlyene Chloride (DCM)): >1.0 wt .%
- Observation (visual solubility) ([1]; Methlyene Chloride (DCM)): Insoluble
- Compound 1 Visual Solubility ([1]; Methyl Ethyl Ketone (MEK)): >1.0 wt .%
- Observation (visual solubility) ([1]; Methyl Ethyl Ketone (MEK)): Insoluble
- Compound 1 Visual Solubility ([1]; Tetrahydrofuran (THF)): >1.0 wt .%
- Observation (visual solubility) ([1]; Tetrahydrofuran (THF)): Insoluble
- maximum active loading in solution ([1]; heated (40° C.) 60:40 DCM:Methanol, % w/w): 2.0%
- Tg ([2]; amorphous API by melt-quench, MDSC): 130 °C
- Tm/Tg ratio ([2]; indicating moderate physical stability): 1.32
- Total Drug AUC35-210 FaSSIF ([3]; area under the curve after transfer to FaSSIF from 35 to 210 minutes): 600 min * μgA/mL
- Total Drug C210 ([3]; drug concentration at 180 minutes after transfer to FaSSIF): 3.5 μgA/mL
- Increase in AUC over API AUC ([3]; non-sink dissolution, FaSSIF): 0.4
Compound: O=c1[nH]ncc(N2CCc3c(ncnc3Oc3ccc(F)cc3C(F)(F)F)C2)c1Cl [Compound 1, 4-chloro-5-(4-(4-fluoro-2-(trifluoromethyl)phenoxy)-5,8-dihydropyrido[3,4-d]pyrimidin-7(6H)-yl)pyridazin-3(2H)-one]
